The test system of experiment [1] is circadian rhythms in humans (jet lag). Put plainly: Example 1: Subject A, flight Melbourne-North Carolina-Melbourne, melatonin at local bedtime. Format: in vivo, human. The source says: Subject A was a Professor of Physiology who had never taken melatonin before. |Flight from Melbourne → North Carolina, U.S.A. → Melbourne. |Details of activity schedule, sleeping time, melatonin administration. In this example Subject A used a preparation of crystalline melatonin in a gelatin capsule.

The test system is the same in experiment [2]. Nature of the experiment: Example 6: Subject C, flight Melbourne-Los Angeles-Washington-London-Vancouver-Melbourne, verbatim account. Format: in vivo, human. Particulars: for overall effect on jet-lag (subject's impression, comment): 5 mg capsule on retiring and a second on awaking. As to the method: Subject C Flight from Melbourne→Los Angeles→Washington→London→Vancouver→Melbourne. 15.2.84-27.3.84 The subject, a Professor who had never taken Melatonin before, was given gelatin capsules containing 5 mg Melatonin and instructed to take one capsule on going to bed in the evening (local time) after arrival at their destination, and to take a further capsule if they awoke in the night.

The next experiment deals with human subjects. Particulars: pharmacological doses; cited from earlier work.
The test system of experiment [3] is free-running circadian activity rhythm of rats. Particulars: pharmacological doses, only when given at onset of spontaneous activity; cited from earlier work.
The test system of experiment [4] is circadian rhythms in humans (jet lag). Put plainly: Example 5: Subject B, double-blind trial, Capsule A (melatonin) vs Capsule B (placebo), flight Melbourne-Geneva-Rotterdam-Melbourne. Format: in vivo, human. The source says: Subject B Flight from Melbourne→Geneva→Rotterdam→Melbourne 30.1.84-19.2.84
This was a double-blind trial. The subject, a Clinical Professor who had never taken Melatonin before, was given two bottles labelled A and B containing identical-looking gelatin capsules, and told to take one capsule A on going to bed, and again if awaking in the middle of the night, for the first 4 days after arrival in Geneva. They were told to take one capsule B according to the same schedule after return to Melbourne, and to record the quality of each night's sleep and feelings during the daytime. Capsule A contained 5 mg Melatonin. and capsule B contained a placebo (sucrose). Only after the subject had completed their written report 4 days after returning to Melbourne were they told which pills contained Melatonin and which contained placebo.

The test system is the same in experiment [5]. Put plainly: Example 8: Subject E, flight London-Melbourne. Type of experiment: in vivo, human. Particulars: 5 mg at bedtime; for symptoms of jet-lag: Easterly flight London-Melbourne. The source says: Subject E Flight from London→Melbourne→London 30.12.83-16.1.84
Experiment [6] concerns hamsters, sheep, ferrets and deer. Particulars: physiological doses by mouth, implant or injection; cited from earlier work.
Where [7] appears, read: Capsule A = 5 mg Melatonin, Geneva.

“Also recorded” adds a separate entry of the source.

Turning to `COc1ccc2[nH]cc(CCNC(C)=O)c2c1` [melatonin, 5-methoxy-N-acetyltryptamine], in experiment [1] (2.5-5.0 mg oral melatonin at bedtime and on waking), the “symptoms of jet lag / fatigue (comment)” value is on record as “no symptoms of jet lag whatsoever; also recorded: never felt any fatigue whatsoever”. For the same molecule, in experiment [1] (2.5 or 5.0 mg oral per dose), the “feeling on awakening after melatonin sleep (diary)” value is “Felt fresh, relaxed, not jet-lagged; also recorded: felt fresh, relaxed” and the “sleep after taking melatonin (diary)” value is listed as “fell asleep again”. Also, in experiment [1] (awoke during the night in North Carolina, oral crystalline melatonin in gelatin capsule), the “time to fall asleep again after taking additional melatonin” value is at most 15 min. For the same molecule, the “overall effect on jet-lag (subject's impression, comment)” value in experiment [2] is on record as “prevented the usual, unpleasant symptoms associated with rapid changes in time zones”. For the same molecule, the “overall effect on jet-lag (subject's impression, comment)” value in experiment [2] (listed as Melatonin) was “great improvement over my normal experience of jet-lag”. Further, the “feeling / adjustment the day after melatonin” value in experiment [2] (Los Angeles, London (5 h change), Vancouver (8 h change)) is “felt very close to normal; also recorded: feeling normal and appeared to be fully adjusted to the London time; also recorded: felt a little unusual and later, around 4.00 pm felt very sleepy”. Besides, the “sleep after taking melatonin” value in experiment [2] (first night in Los Angeles) was “sleep that night appeared normal”. Moreover, the effect on sleep result in the experiment with human subjects was “induces drowsiness and sleep”. The “entrainment of free-running circadian activity rhythm” value in experiment [3] was “could entrain the free-running circadian activity rhythm of rats”. Further, the “time after entering new time zone until able to sleep at period coinciding with early morning in zone of departure” value in experiment [4] was at most 24 h. Besides, in experiment [4] (5 mg melatonin per capsule, first 4 days in Geneva, double-blind), the “subject's blinded conclusion on effect of capsule” value was “making them less tired and more alert in the meetings at WHO in Geneva”. Besides, in experiment [4] (setting [7]), the “feeling during day (diary)” value is “felt tired in morning” and the “sleep after taking capsule (diary)” value is listed as “fell asleep again; also recorded: slept well; also recorded: sleep well”. In experiment [5], the “sleep after taking melatonin” value was “slept well” and the symptoms of jet-lag entry was “no signs of jet-lag on the 3rd day”. Besides, in experiment [5] (listed as Melatonin), the symptoms of jet-lag entry was “no symptoms of jet-lag; also recorded: appeared to prevent all symptoms of jet-lag” and the “sleep after taking melatonin” value was “excellent night's sleep”. Moreover, in experiment [6], the “timing of the annual breeding season” value is “capable of altering the timing of the annual breeding season”.

The record behind these values is patent US4665086A, “Method for minimizing disturbances in circadian rhythms of bodily performance and function” (priority 1983, dated 1987).
